Activity calls are given as the source filed them. How the calls were made is not given here.

Drawing on PubChem BioAssay AID1259407 (Chemical Carcinogenesis Research Information System (CCRIS), 2018), this text covers mutagenic call for one compound.

This series has as its system CCRIS mutagenicity, Ames/micronucleus/aberration tests. In words: CCRIS mutagenicity studies.

On to `O=C(O)C(Br)Br`, for which the mutagenic call (End Point: Ames Salmonella typhimurium, Test System: TA98, Metabolic Activation: Hamster, liver, S-9, Aroclor 1254, Method: Preincubation) is “inactive; negative”; the mutagenic call (End Point: Ames Salmonella typhimurium, Test System: TA100, Metabolic Activation: Hamster, liver, S-9, Aroclor 1254, Method: Preincubation) is “active; positive”; the mutagenic call (End Point: In vivo micronucleus, Test System: Peripheral blood erythrocytes, Species: Mouse, Strain/Sex: B6C3F1/Female, Route: Oral (drinking water)) was “inactive; negative (for increased frequencies of micronucleated normochromatic erythrocyte”; the mutagenic call (End Point: In vivo micronucleus, Test System: Peripheral blood erythrocytes, Species: Mouse, Strain/Sex: B6C3F1/Male, Route: Oral (drinking water)) is “inactive; positive (for increased frequencies of micronucleated normochromatic erythrocyte”; the mutagenic call (Test System: AMES SALMONELLA TYPHIMURIUM, Strain/Indicator: RSJ100, Metabolic Activation: NONE, Method: PREINCUBATION) is “inactive; negative”; the mutagenic call (Test System: AMES SALMONELLA TYPHIMURIUM, Strain/Indicator: RSJ100, Metabolic Activation: RAT LIVER S-9, Method: PREINCUBATION) was “inactive; negative”. For the same compound, the mutagenic call is “active; positive” (Test System: AMES SALMONELLA TYPHIMURIUM, Strain/Indicator: TA98, Metabolic Activation: RAT LIVER S-9, Method: PREINCUBATION); “inactive; negative” (Test System: AMES SALMONELLA TYPHIMURIUM, Strain/Indicator: TA98, Metabolic Activation: RAT, LIVER, S-9, PHENOBARBITAL AND 5,6-BENZOFLAVONE, Method: PREINCUBATION); “active; positive” (Test System: AMES SALMONELLA TYPHIMURIUM, Strain/Indicator: TA100, Metabolic Activation: NONE, Method: FLUCTUATION TEST); “active; positive” (Test System: AMES SALMONELLA TYPHIMURIUM, Strain/Indicator: TA100, Metabolic Activation: NONE, Method: PREINCUBATION); “active; positive” (Test System: AMES SALMONELLA TYPHIMURIUM, Strain/Indicator: TA100, Metabolic Activation: RAT LIVER S-9, Method: PREINCUBATION); “active; positive” (Test System: AMES SALMONELLA TYPHIMURIUM, Strain/Indicator: TA100, Metabolic Activation: RAT, LIVER, S-9, AROCLOR 1254, Method: FLUCTUATION TEST). Also, the mutagenic call runs as follows: (Test System: AMES SALMONELLA TYPHIMURIUM, Strain/Indicator: TA100, Metabolic Activation: RAT, LIVER, S-9, PHENOBARBITAL AND 5,6-BENZOFLAVONE, Method: PREINCUBATION) “active; positive”; (Test System: Ames Salmonella typhimurium, Strain/Indicator: TA98, Metabolic Activation: None, Method: Preincubation) “inactive; negative”; (Test System: Ames Salmonella typhimurium, Strain/Indicator: TA98, Metabolic Activation: Rat, liver, S-9, Aroclor 1254, Method: Preincubation) “inactive; negative”; (Test System: Ames Salmonella typhimurium, Strain/Indicator: TA100, Metabolic Activation: None, Method: Preincubation) “active; positive”; (Test System: Ames Salmonella typhimurium, Strain/Indicator: TA100, Metabolic Activation: Rat, liver, S-9, Aroclor 1254, Method: Preincubation) “active; positive”.
